PubChem BioAssay AID1963965 (Molecular Pharmacology Branch, DTP, NCI, 2024)

Test system: 996289-038-R-J1-PDC spheroid viability
Test: Anticancer human tumor 996289-038-R-J1-PDC patient-derived colon adenocarcinoma cell line growth inhibition [PI3K]
Settings: spheroids with HUVEC and MSC; for IC50: curve of first compound; for viability, T/C: stronger effect = lower value; active = viability on the fitted dose curve at most 10% of control; inactive = the rest
Outline: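 Tumor cells were combined with HUVEC and MSCs into spheroids, then dosed with PI3K-inhibitor combinations over half-log ranges capped near clinical Cmax or 10 microM.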

[1] = second compound 0.0316 µM, first compound 0.000316 µM
[2] = second compound 0.0316 µM, first compound 0.001 µM
[3] = second compound 0.0316 µM, first compound 0.00316 µM
[4] = second compound 0.0316 µM, first compound 0.01 µM
[5] = second compound 0.0316 µM, first compound 0.0316 µM
[6] = second compound 0.0316 µM, first compound 0.1 µM
[7] = second compound 0.1 µM, first compound 0.000316 µM
[8] = second compound 0.1 µM, first compound 0.001 µM
[9] = second compound 0.1 µM, first compound 0.00316 µM
[10] = second compound 0.1 µM, first compound 0.01 µM
[11] = second compound 0.1 µM, first compound 0.0316 µM
[12] = second compound 0.1 µM, first compound 0.1 µM
[13] = second compound 0.316 µM, first compound 0.000316 µM
[14] = second compound 0.316 µM, first compound 0.001 µM
[15] = second compound 0.316 µM, first compound 0.00316 µM
[16] = second compound 0.316 µM, first compound 0.01 µM
[17] = second compound 0.316 µM, first compound 0.0316 µM
[18] = second compound 0.316 µM, first compound 0.1 µM
[19] = second compound 1 µM, first compound 0.000316 µM
[20] = second compound 1 µM, first compound 0.001 µM
[21] = second compound 1 µM, first compound 0.00316 µM
[22] = second compound 1 µM, first compound 0.01 µM
[23] = second compound 1 µM, first compound 0.0316 µM
[24] = second compound 1 µM, first compound 0.1 µM
[25] = second compound 3.16 µM, first compound 0.0316 µM
[26] = second compound 3.16 µM, first compound 0.1 µM
[27] = second compound 10 µM, first compound 0.0316 µM
[28] = second compound 10 µM, first compound 0.1 µM
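Also: spheroids exposed to compounds for seven days before viability read.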
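For viability, T/C in this document: luminescence used as a proxy for viable cell amount; percent viability relative to DMSO vehicle control as 100%.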

CC(=O)c1c(C)c2cnc(Nc3ccc(N4CCNCC4)cn3)nc2n(C2CCCC2)c1=O + CC(Nc1ncnc2nc[nH]c12)c1cc2cccc(Cl)c2c(=O)n1-c1ccccc1
> 100 nM: IC50 (second compound 0.0316 µM) | IC50 (second compound 0.1 µM) | IC50 (second compound 0.316 µM) | IC50 (second compound 1 µM) | IC50 (second compound 3.16 µM) | IC50 (second compound 10 µM)
inactive: viability, T/C [1] 104% | viability, T/C [2] 96.3% | viability, T/C [3] 93.2% | viability, T/C [4] 92% | viability, T/C [5] 99.2% | viability, T/C [6] 84.2% | viability, T/C [7] 96.4% | viability, T/C [8] 97.5% | viability, T/C [9] 101% | viability, T/C [10] 102% | viability, T/C [11] 107% | viability, T/C [12] 90.1% | viability, T/C [13] 93.8% | viability, T/C [14] 105% | viability, T/C [15] 102% | viability, T/C [16] 97.7% | viability, T/C [17] 108% | viability, T/C [18] 86.7% | viability, T/C [19] 106% | viability, T/C [20] 102% | viability, T/C [21] 90.3% | viability, T/C [22] 95.2% | viability, T/C [23] 92.4% | viability, T/C [24] 89.8% | viability, T/C (second compound 3.16 µM, first compound 0.000316 µM) 102% | viability, T/C (second compound 3.16 µM, first compound 0.001 µM) 91.3% | viability, T/C (second compound 3.16 µM, first compound 0.00316 µM) 88.4% | viability, T/C (second compound 3.16 µM, first compound 0.01 µM) 95.9% | viability, T/C [25] 103% | viability, T/C [26] 84.5% | viability, T/C (second compound 10 µM, first compound 0.000316 µM) 87.5% | viability, T/C (second compound 10 µM, first compound 0.001 µM) 84.4% | viability, T/C (second compound 10 µM, first compound 0.00316 µM) 88.2% | viability, T/C (second compound 10 µM, first compound 0.01 µM) 86.7% | viability, T/C [27] 104% | viability, T/C [28] 72.7%

C#Cc1c(F)ccc2cc(O)cc(-c3ncc4c(N5CC6CCC(C5)N6)nc(OCC56CCCN5CC(F)C6)nc4c3F)c12 (stereo unspecified) + CC(Nc1ncnc2nc[nH]c12)c1cc2cccc(Cl)c2c(=O)n1-c1ccccc1
372 nM: IC50 (second compound 10 µM)
681 nM: IC50 (second compound 3.16 µM)
inactive: viability, T/C [5] 101% | viability, T/C [6] 96.6% | viability, T/C (second compound 0.0316 µM, first compound 0.316 µM) 69.7% | viability, T/C (second compound 0.0316 µM, first compound 1 µM) 52% | viability, T/C (second compound 0.0316 µM, first compound 3.16 µM) 45.6% | viability, T/C (second compound 0.0316 µM, first compound 10 µM) 37.2% | viability, T/C [11] 90.4% | viability, T/C [12] 76.2% | viability, T/C (second compound 0.1 µM, first compound 0.316 µM) 60.6% | viability, T/C (second compound 0.1 µM, first compound 1 µM) 55.3% | viability, T/C (second compound 0.1 µM, first compound 3.16 µM) 46.8% | viability, T/C (second compound 0.1 µM, first compound 10 µM) 33% | viability, T/C [17] 95.9% | viability, T/C [18] 81.8% | viability, T/C (second compound 0.316 µM, first compound 0.316 µM) 71.2% | viability, T/C (second compound 0.316 µM, first compound 1 µM) 54% | viability, T/C (second compound 0.316 µM, first compound 3.16 µM) 40% | viability, T/C (second compound 0.316 µM, first compound 10 µM) 33.7% | viability, T/C [23] 99.3% | viability, T/C [24] 79% | viability, T/C (second compound 1 µM, first compound 0.316 µM) 59.8% | viability, T/C (second compound 1 µM, first compound 1 µM) 57.5% | viability, T/C (second compound 1 µM, first compound 3.16 µM) 35.6% | viability, T/C (second compound 1 µM, first compound 10 µM) 32.8% | viability, T/C [25] 92.3% | viability, T/C [26] 81.6% | viability, T/C (second compound 3.16 µM, first compound 0.316 µM) 63.2% | viability, T/C (second compound 3.16 µM, first compound 1 µM) 42.6% | viability, T/C (second compound 3.16 µM, first compound 3.16 µM) 34.1% | viability, T/C (second compound 3.16 µM, first compound 10 µM) 27.6% | viability, T/C [27] 78.9% | viability, T/C [28] 74% | viability, T/C (second compound 10 µM, first compound 0.316 µM) 47.8% | viability, T/C (second compound 10 µM, first compound 1 µM) 37.9% | viability, T/C (second compound 10 µM, first compound 3.16 µM) 29.5% | viability, T/C (second compound 10 µM, first compound 10 µM) 20.9%
1510 nM: IC50 (second compound 0.1 µM)
1160 nM: IC50 (second compound 0.0316 µM)
1040 nM: IC50 (second compound 1 µM)
1430 nM: IC50 (second compound 0.316 µM)

CC(C)n1nc(-c2ccc3oc(N)nc3c2)c2c(N)ncnc21 + CC(Nc1ccc2c(c1)OCCn1cc(N3C(=O)OCC3C(F)F)nc1-2)C(N)=O
23.4 nM: IC50 (second compound 0.1 µM)
31.4 nM: IC50 (second compound 0.0316 µM)
inactive: viability, T/C (second compound 0.00316 µM, first compound 0.000316 µM) 95.9% | viability, T/C (second compound 0.00316 µM, first compound 0.001 µM) 82.8% | viability, T/C (second compound 0.00316 µM, first compound 0.00316 µM) 90.5% | viability, T/C (second compound 0.00316 µM, first compound 0.01 µM) 81.1% | viability, T/C (second compound 0.00316 µM, first compound 0.0316 µM) 64.5% | viability, T/C (second compound 0.00316 µM, first compound 0.1 µM) 29.7% | viability, T/C (second compound 0.01 µM, first compound 0.000316 µM) 94.8% | viability, T/C (second compound 0.01 µM, first compound 0.001 µM) 93.2% | viability, T/C (second compound 0.01 µM, first compound 0.00316 µM) 84.6% | viability, T/C (second compound 0.01 µM, first compound 0.01 µM) 75.9% | viability, T/C (second compound 0.01 µM, first compound 0.0316 µM) 62.4% | viability, T/C (second compound 0.01 µM, first compound 0.1 µM) 28.5% | viability, T/C [1] 100% | viability, T/C [2] 95.6% | viability, T/C [3] 79.1% | viability, T/C [4] 63.2% | viability, T/C [5] 54.7% | viability, T/C [6] 29.1% | viability, T/C [7] 85% | viability, T/C [8] 75.3% | viability, T/C [9] 67.8% | viability, T/C [10] 62% | viability, T/C [11] 48.5% | viability, T/C [12] 23.4% | viability, T/C [13] 64% | viability, T/C [14] 67.8% | viability, T/C [15] 57.2% | viability, T/C [16] 43.9% | viability, T/C [17] 39.8% | viability, T/C [18] 17.1% | viability, T/C [19] 52.3% | viability, T/C [20] 60.9% | viability, T/C [21] 57.2% | viability, T/C [22] 41.6% | viability, T/C [23] 33.7% | viability, T/C [24] 16%
8.43 nM: IC50 (second compound 0.316 µM)
46.1 nM: IC50 (second compound 0.01 µM)
51.2 nM: IC50 (second compound 0.00316 µM)
5.5 nM: IC50 (second compound 1 µM)
